Measured values reported in PubChem BioAssay (NCI).
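Interpolation was linear, between the two tested concentrations surrounding the appropriate level; five concentrations were tested over 48 hours in 96-well plates. TGI marks complete inhibition of growth.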

Columns and labels:
Test in all cases: NCI-60 cell line screen, 48 h
UO-31 renal = tested on: UO-31 renal
SK-MEL-5 melanoma = tested on: SK-MEL-5 melanoma
A498 renal = tested on: A498 renal
A549 NSCLC = tested on: A549 NSCLC
NCI-H460 lung = tested on: NCI-H460 lung
EKVX NSCLC = tested on: EKVX NSCLC
RXF 393 renal = tested on: RXF 393 renal
DMS 114 small cell lung = tested on: DMS 114 small cell lung
KM20L2 colon = tested on: KM20L2 colon
ACHN renal = tested on: ACHN renal
MOLT-4 leukemia = tested on: MOLT-4 leukemia
SK-MEL-2 melanoma = tested on: SK-MEL-2 melanoma
HCT-15 colon = tested on: HCT-15 colon
HCC-2998 colon = tested on: HCC-2998 colon
MALME-3M melanoma = tested on: MALME-3M melanoma
XF 498 CNS = tested on: XF 498 CNS
786-0 renal = tested on: 786-0 renal
UACC-257 melanoma = tested on: UACC-257 melanoma
UACC-62 melanoma = tested on: UACC-62 melanoma
NCI-H226 lung = tested on: NCI-H226 lung
HT29 colon = tested on: HT29 colon
SK-MEL-28 melanoma = tested on: SK-MEL-28 melanoma
NCI-H23 lung = tested on: NCI-H23 lung
SF-295 CNS = tested on: SF-295 CNS
SW-620 colon = tested on: SW-620 colon
CAKI-1 renal = tested on: CAKI-1 renal
HCT-116 colon = tested on: HCT-116 colon
OVCAR-8 ovarian = tested on: OVCAR-8 ovarian
DLD-1 colon = tested on: DLD-1 colon
SNB-75 CNS = tested on: SNB-75 CNS
LXFL 529 NSCLC = tested on: LXFL 529 NSCLC
SF-539 CNS = tested on: SF-539 CNS
HL-60(TB) leukemia = tested on: HL-60(TB) leukemia
DMS 273 small cell lung = tested on: DMS 273 small cell lung
M14 melanoma = tested on: M14 melanoma
IGROV1 ovarian = tested on: IGROV1 ovarian
KM12 colon = tested on: KM12 colon
M19-MEL melanoma = tested on: M19-MEL melanoma
SK-OV-3 ovarian = tested on: SK-OV-3 ovarian
K-562 leukemia = tested on: K-562 leukemia
OVCAR-3 ovarian = tested on: OVCAR-3 ovarian
U251 CNS = tested on: U251 CNS
RPMI-8226 leukemia = tested on: RPMI-8226 leukemia
SNB-78 CNS = tested on: SNB-78 CNS
OVCAR-4 ovarian = tested on: OVCAR-4 ovarian
TK-10 renal = tested on: TK-10 renal
HOP-62 NSCLC = tested on: HOP-62 NSCLC
OVCAR-5 ovarian = tested on: OVCAR-5 ovarian
CCRF-CEM leukemia = tested on: CCRF-CEM leukemia
SN12C renal = tested on: SN12C renal
SNB-19 CNS = tested on: SNB-19 CNS
LOX IMVI melanoma = tested on: LOX IMVI melanoma
COLO 205 colon = tested on: COLO 205 colon
NCI-H522 lung = tested on: NCI-H522 lung
SF-268 CNS = tested on: SF-268 CNS
HOP-92 NSCLC = tested on: HOP-92 NSCLC
SR leukemia = tested on: SR leukemia

Measured: TGI

C[C@]12CC[C@H](O)CC1=CC[C@@H]1C2CC[C@]2(C)NC(=O)C(C#N)CC12 (some centres not stated)
not listed: SN12C renal | SNB-19 CNS | LOX IMVI melanoma | COLO 205 colon | NCI-H522 lung | SF-268 CNS | HOP-92 NSCLC | SR leukemia
> 100 µM: all other assays above

O=c1nc2n(c3nsnc13)CCO2
not listed: A498 renal | SF-295 CNS | SNB-78 CNS | OVCAR-4 ovarian
> 100 µM: all other assays above
